pIC50: −log10 of the molar value.
Columns and labels:
[1] = target: T1, His-p51/FLAG-p66 RT heterodimer (Human immunodeficiency virus type 1 group M subtype B, UniProt P12497); experiment: Microplate eTag assay to monitor p66-p51 RT dimerization, in the presence of drugs; assay type: binding; conditions: drug concentration varied from 0 μM to 100 μM; released eTag quantitated; read-out: IC50 (heterodimerization of p66 and p51)
T1 construct: The gene for the 66 kDa subunit of HIV-1 RT; The gene for the 51 kDa subunit of HIV-1 RT; made in house; host or cells: E. coli
Method: The assay was performed by first capturing His-tagged p51 on Ni^2+-NTA microplates, and then adding FLAG-tagged p66 to form the heterodimer. To the heterodimer complex was added a solution of eTag covalently linked to FLAG antibodies resulting His-p51/FLAG-p66 RT heterodimer complexed to an eTag immobilized on the microplates. After washing to remove unbound material, the eTag was cleaved by the addition of methylene blue, and the amount of released eTags was measured and quantitated by electrophoretic separation.

[2] = target: T2, heterodimerization of p66 and p51 (Human immunodeficiency virus type 1 group M subtype B, UniProt P12497); conditions: literature comparison values; cited from earlier work
T2 construct: active form of HIV-1 RT is a heterodimer containing two polypeptides, p66 and p51

Question: With calmodulin [CAM] as the substance, how does the pIC50 [1] read?
Answer: The pIC50 was 5.43.

Question: And the pIC50 [2]?
Answer: The pIC50 was 5.72.

Question: With “[2′,5′-bis-o-(butyldimethylsilyl)-3′-spiro 5′-(4′-amino-1′,2′-oxothiole-2′,2′-dioxide] [TSAO]” as the substance, how does the pIC50 [1] read?
Answer: The pIC50 was 5.19.

Question: What about the pIC50 [2] of the same substance?
Answer: Its pIC50 is 5.17.
